The values below come from US20230414546A1, “Combined Therapy Against Cancer” (UNIVERSITAT POLITÈCNICA DE CATALUNYA, priority 2020, published 2023).

For one series, the system named is 143.6 sarcospheres. The series can be described thus: Sarcosphere formation (cancer stem cells), 143.B. Type of series: cell-based, human. The settings on record: 143.6 cells; treated at day 3 for 7 days; PTM 5 and 20 min, S3I-201 100 μM. As for the experimental part: (§1) FIGS. 7A-7C. Synergic effect of the combined therapy on sarcosphere number reduction. The (A) MG-63 sarcospheres and (B) 143.6 sarcospheres formed were scored (size […]) and counted. Data represent the number of sarcospheres formed as mean and standard deviation of n=6 independent experiments (*p<0.01; **p<0.001; ****p<0.0001 one-way ANOVA). (C) Concentration of NO2- and H2O2 in micromolar concentration in PTM 5, 10 or 20 min.
(§2) Osteosarcoma cells MG-63 and 143.B were cultured in sarcosphere-forming conditions (Cancer Stem Cell (CSC) isolation standard method) for 3 days and then were incubated for another 7 days in contact with PTM according to the following parameters: Helium flow rate: 1 L/min; Gap between APPJ nozzle and CSC medium surface: 10 mm; Treatment times: between 5 and 20 minutes. The CSC Medium was DMEM/F-12 supplemented with GlutaMAX™ (1X; Gibco™, cat.no 10565018, Carlsbad, CA, USA), B-27 Supplement (1:50; Life Technologies), Heparin (1:1000; Sigma), human bEGF (20 ng/ml), human bFGF (10 ng/ml; GoldBio) and sodium pyruvate. The sarcospheres were treated at day 3 with PTM (5 and 20 min), with S3I-201 (100 μM) or with the combination of both for 7 days more.

The next series concerns MG-63 sarcospheres. Kind of series: Sarcosphere formation (cancer stem cells), MG-63. Type of series: cell-based. The settings on record: treated at day 3 for 7 days, PTM 5 and 20 min, S3I-201 100 μM. The procedure: as §1, §2
For the next series, the system named is osteosarcoma cell lines. The settings on record: in vitro, cited from earlier work.
For series [1], the system named is human 143B osteosarcoma cells. Kind of series: Murine orthotopic osteosarcoma model, tumor volume. Type of series: in vivo. The note with it: nude mice, tibia; daily para-tumoral 100 μL PTM—20 min; 5 mg/kg S3I-201 orally three times per week; versus control. The procedure:
FIG. 8. […] Tumor volume of the different groups at final day (when tumors reach 1000 mm^3) . The one-way ANOVA was performed to determine the statistical significance between control and treated groups.
To investigate the role PTM in combination with S3I-201 in osteosarcoma disease development, we used a murine orthotopic osteosarcoma model in which human 143B osteosarcoma cells are injected into the tibia of immunodeficient mice. All in vivo tumor experiments were performed with female nude mice (NMRI-Foxn1 nu/nu mice from Janvier Labs). For orthotopic primary tumor growth, 50,000 cells were injected into the right tibia of 7 weeks old mice under isoflurane anaesthesia. Mice received a daily para-tumoral injection of 100 μL of PTM—20 min or 5 mg/kg S3I-201 (orally, dissolved in corn oil) three times per week, or a combination of both treatments. In parallel, control group received a daily para-tumoral injection of Ringer's Saline or 200 μL corn oil orally. Primary tumors were detected and quantified by bioluminescent in vivo imaging five days day after cell injection and subsequently once a week until the tumors reached the study endpoint (termination criterion: primary tumor total flux>[…] photons/s). […] The one-way ANOVA was performed to determine the statistical significance between control and treated groups.

Series [2] is described as follows: Concentration of reactive species in plasma-treated hydrogel compositions. It counts as physicochemical. The note with it: plasma treatment 180 seconds, concentration in the material. An excerpt:
The RONS concentration is quantified either using the AR/HRP reagent method or the Griess reagent method for H2O2 and NOi, respectively. Also, plastic strips with test paper which allow quantification of H2O2 based on a redox reaction and NOi, also using the Griess reagent may be used when a hydrogel is used and the protein solution causes interferences with the AR/HRP reagent method or the Griess reagent method. These two methods give equivalent results.
A 50/50 blend of 0.5 weight % alginate and 2 weight % gelatin solutions were prepared (final concentration of 0.25% wt alginate and 1% wt gelatin). The mixture of alginate/gelatin was prepared is by vortexing in a ratio 1:1, 2% wt gelatin with 0.5% wt alginate for 2 minutes. Gelatin in powder is mixed with MilliQ water at 37° C. using magnetic stirring for 2 hours to obtain a 2% wt gelatin gel. 0.5% alginate was prepared by mixing alginate powder with MilliQ water using a SpeedMixer™ DAC 150.1 FVZ-K (SpeedMixer™, Germany) at 3500 r.p.m. for 15 min. The 0.25% wt alginate and 1% wt gelatin aqueous mixture was treated with an atmospheric pressure plasma jet kINPen IND® (Neoplas, Germany) operating with Argon to generate plasma. Treatment conditions: 1 Umin gas flow, 10 mm nozzle distance, and 180 seconds treatment. Treatment performed in 200 μL of mixture in a 96-well plate. […]

For the compound `Cc1ccc(S(=O)(=O)OCC(=O)Nc2ccc(C(=O)O)c(O)c2)cc1` [S3I-201], the “number / growth of sarcospheres at day 10” value in the series on 143.6 sarcospheres and in the series on MG-63 sarcospheres was “significantly reduced” in each case. For the same compound, the apoptosis entry in the series with osteosarcoma cell lines (caspase-3 pathway) is recorded as “apoptosis enhancement via the caspase-3 pathway”. In the series on osteosarcoma cell lines, the “cell growth and colony formation” value was “significant inhibition of cell growth and colony formation”. The “tumor volume at final day” value in series [1] is “display a tumor volume in a similar way that control”.

With Water, in series [2], the “H2O2” value came out at 10.3 mg/L and the “NO2−” value worked out at 2.6 mg/L.
